Data as given in a melting point compilation (Tetko et al.; mined from patent text by program, amines drawn as free bases though some values may be those of a salt).

SMILES	melting point [°C]
CC(=O)Nc1ccc(-n2c(-c3ccccc3)cc3c2CCCC3)cc1C(=O)O	192 to 194
CNc1nc(N)nc(-c2cc(Cl)ccc2Cl)n1	205 to 206
CN(C(=O)CCS(C)=O)c1nnc(-c2cccnc2)s1 (stereo unspecified)	138 to 140
O=C1CCCN1c1ccc(CCN2CCN(c3ccccc3Cl)CC2)cc1	132
CC1(C)C(C#N)C1(C)C	17
COc1cc2c(Nc3ccc(Cl)cc3F)ncnc2cc1OCC1CCOC1 (stereo unspecified)	201 to 202
CN(C)c1ccc(C(=O)OC2CCN(Cc3ccccc3)CC2)cc1	103
Cc1nn(C)c2c(=O)n(C)c(C)nc12	190 to 192
O=C1c2ccccc2-c2cc(O)c(Cl)c(Cl)c21	276 to 284
CCCCCCCP(=O)(O)O[C@@H](CCCCN)C(=O)N1CCC[C@H]1C(=O)O	180 to 186
N=C(Nc1ccc(C(F)(F)F)cc1)c1ccc(Cl)cc1Cl	108 to 109
CC(C)c1nc(COCc2ccccc2)n(CF)c1Sc1cc(Cl)cc(Cl)c1	115 to 117
Cc1ccc(-c2cc(C=O)ccn2)cc1	66
COc1ccc2c(c1)Sc1cc(C#N)ccc1N2	198 to 199
O=C1CC(=O)OC2(O1)SC=CS2	59 to 60
CN(c1cccc2cc(-c3nc(CCC(=O)O)cs3)[nH]c12)S(=O)(=O)c1cccs1	200 to 201
CC(C)(C)c1ccc(C(=O)Nc2cn3cc(F)ccc3n2)cc1	250 to 251
COc1cc(Br)c(/C=C/c2cc(/C=C/c3ccc4cc[nH]c4c3)[nH]n2)cc1O	137 to 142
Cc1cc(Cl)ccc1OCC(=O)Nc1ccc(S(N)(=O)=O)cc1	218 to 220
O=Cc1sccc1-c1noc2ccccc12	173 to 174
COc1ccc(Nc2nc(-c3cccc(C(=O)Nc4ccc(C(=O)O)cc4)c3)cn3ccnc23)cc1OC	> 250
O=C(Nc1ccccc1)c1ccc(OC(F)(F)F)c(Nc2cccc(C(F)(F)F)c2)c1	129 to 130
COC(=O)C1Cc2cncn2C(=O)N1 (stereo unspecified)	159 to 164
O=C(O)c1cncn1C(C1CCCCC1)C1CCCCC1	253

SMILES	melting point [°C]
Cc1ccc(S(=O)(=O)Nc2ccc3c(=O)c4c(sc3c2)CC(C)(C)CC4)cc1	279
CC(=O)OC1(Cc2ccncc2)C(=O)N(N2CCCCC2)c2ccccc21 (stereo unspecified)	139 to 140
O=[N+]([O-])C=C1C2CC3CC(C2)CC1C3	78 to 81
Cc1cccc2c1N(CC(=O)C1CC1)C(=O)C(NC(=O)Nc1cccc(-c3nnn[nH]3)c1)N=C2C1CCCCC1 (stereo unspecified)	227 to 233
COC(COC(=O)C1=C(C)NC2=C(C(=O)CNC2)C1c1cccc(Cl)c1C)c1ccccc1 (stereo unspecified)	160 to 163
NS(=O)(=O)c1ccc(-n2nc(C(F)(F)F)cc2-c2ccc(-c3ccco3)cc2)cc1Cl	193
Cc1cc(I)ccc1OC=C1C=CC=CC1n1nnn(C)c1=O (stereo unspecified)	128 to 130
N#CC(C#N)=C1N(CCN2CCCCC2)c2ccccc2N1CCN1CCCCC1	127 to 128
CC12CCC3c4ccc(O)cc4CCC3C1CC=C2c1cccnc1 (stereo unspecified)	256 to 258
O=C(O)C(=O)c1ccc(OCCCc2ccc(F)cc2)cc1	77 to 78
COc1ccc(NCCCOc2ccc3ccccc3c2)cc1	110
CCNC(=O)c1ccc(N2CCN(Cc3cnc4c(c3)[nH]c(=O)n3cccc43)CC2)c(Cl)c1	266 to 271
CCOC(=O)C1CCCN(C(=O)/C=C/c2ccc(Sc3ccc4c(c3)OCCO4)c([N+](=O)[O-])c2)C1 (stereo unspecified)	73 to 75
NS(=O)(=O)c1cc(C(=O)O)cc([N+](=O)[O-])c1Oc1ccc(Cl)cc1	248
Cc1ncc(COP(=O)(O)O)c(CN(CCN(CC(=O)O)Cc2c(COP(=O)(O)O)cnc(C)c2O)CC(=O)O)c1O	174 to 180
CNCC(O)COc1cccc(Nc2cc(Nc3cccc(C)c3)ncn2)c1 (stereo unspecified)	88 to 90
Nc1ncnc2cc(CCl)ccc12	> 300
O=C1Cc2cc(CCCl)ccc2N1	168 to 170
O=P(O)(O)C(O)c1ccccc1 (stereo unspecified)	160 to 162
COC(=O)COc1ccc(C2C(=O)Oc3c2cc(C(C)(C)C)cc3C(C)(C)C)cc1 (stereo unspecified)	115 to 117
COc1ccc(N2C[C@](C)(COc3ccc(C#N)cc3)OC2=O)cc1	147 to 149
COc1cccc2c(Cc3nc(CCc4ccccc4)co3)coc12	69 to 70
CN1CC(c2ccc(S(C)(=O)=O)cc2)=C(c2cccc(Cl)c2)C1=O	168 to 170
COc1cc(-c2ccc(O)c(C(C)(C)C)c2)cc(C=C2SC(N(C)C)=NC2=O)c1O	272 to 274

SMILES	melting point [°C]
CC1(C)CCC(C)(C)c2cc(-c3cc(-c4ccc(C(=O)O)cc4O)ccc3-c3ccccc3)ccc21	183 to 185
Cc1cc(N)nc(CCc2nc3cc(-c4ccc(C#N)cc4)cnc3[nH]2)c1	218
CCC(=O)Nc1nc2c(s1)-c1nc(-c3ccccc3)ncc1CC2	274 to 275
CN1C(=O)c2c(c3ccc(Cl)cc3n2CCN2CCCCC2)Oc2ccccc21	160 to 162
CSC(=NS(=O)(=O)c1ccccc1-c1ccccc1)SC	115 to 117
NC(=O)C1CCc2ccc([N+](=O)[O-])cc21 (stereo unspecified)	144 to 145
Cc1ccc(C(C#N)=NOS(C)(=O)=O)cc1C	91 to 95
O=C(COc1ccccc1)NCCCn1ccnc1	91 to 93
C=Cc1c(F)c(F)cc2c(=O)c(C(=O)O)cn(C3CC3)c12	183 to 188
O=C(NCCc1nnn[nH]1)C(CS)C(F)(F)F (stereo unspecified)	182 to 184
CC(=O)N(O)Cc1ccccc1Nc1c(Cl)cccc1Cl	165 to 171
COCc1c(C=O)ncc2c1c1c(OCc3ccccc3)cccc1n2S(=O)(=O)c1ccc(C)cc1	125 to 127
CC(C)c1nc(CC(=O)O)n(C)c1Sc1cc(Cl)cc(Cl)c1	118
Cc1cc(C2(C(F)(F)C(F)(F)C(F)(F)F)CC(c3ccc(Cl)cc3)=NO2)ccc1NC(=O)c1cccc(I)c1C(=O)NC(C)C (stereo unspecified)	156 to 158
COc1cc(S(N)(=O)=O)cnc1N=Nc1cc(OC(C)C)c2ccccc2c1O	289
C/C(=C\c1ccc(C(=O)O)cc1)c1ccc(O)c(C23CC4CC(CC(C4)C2)C3)c1	245 to 246
CCOc1cc(Cn2cc(CCC(=O)O)c(-c3ccccc3)c2)cc(OCc2csc(-c3cccs3)n2)c1	104 to 105
COc1ccc2[nH]cc(C=C[N+](=O)[O-])c2c1	151 to 152
Cc1c(-c2ccncc2)sc(-c2ccncc2)c1C(C)O (stereo unspecified)	155 to 157
CS(=O)(=O)c1ccc(C(=O)Cl)c(Cl)c1-c1nccs1	97 to 98
CC(C)(C)OC(=O)NCCC(=O)N[C@@H](CC(=O)OCc1ccccc1)C(=O)NCCc1ccc(OCC(=O)OCc2ccccc2)cc1	123 to 124
CCCOc1ccc(CCC(=O)N2CCN(C)CC2)cc1-c1nc2c(C)cccc2c(=O)[nH]1	184 to 185
COc1cc(NC(=O)CCCCCN2CC(C)NC(C)C2)c2nccc(C)c2c1 (stereo unspecified)	94 to 96
